According to patent publication US20140271727A1, “METHOD OF USING AN ANTIDEPRESSANT FOR INCREASING IMMUNITY OF A SUBJECT AND TREATING CANCER” (NATIONAL YANG-MING UNIVERSITY, priority 2013, published 2014):

What was measured:
CD4+ and CD8+ T cells [1] = assay: Lymph node CD4+ and CD8+ T lymphocyte subsets by FACS; type: in vivo, mouse; conditions: flow cytometry
Procedure: Preferably, the results as shown in FIG. 4C and FIG. 4D are performed by a flow cytometer, and a target cell population will be screened out by utilizing at least one flow cytometer to identify different surface markers of different cells. Flow cytometry allows for single cell analysis at speeds far surpassing any other single cell analysis technology in the art. This enables a statistically significant number of cells to be analyzed faster than using other alternative techniques. In a preferred embodiment, a flow cytometer is used with any suitable sample preparation robot or liquid handler that is known in the art. Furthermore, a single laser flow cytometer is used in an embodiment for the analyzing step. In another embodiment, a multi-laser flow cytometer is used for the analyzing step and the present invention is not limited thereto.
(§1) Second, all animal study protocols were approved by the Institutional Animal Care and Use Committee (IACAU) of National Yang Ming University. Mirtazapine (0.25 mg) was dissolved in 0.05 ml of 0.9% NaCl plus 0.5% absolute ethanol for each mouse (i.e. 10 mg/kg.) Male BALB/c mice (initial weights 25±2 g, and purchased from the National Laboratory Animal Center, Taipei, Taiwan) were housed in the cages, five mice per cage, under a 12:12 h reverse light/dark cycle with lights off at 6 pm Animals were handled and weighed daily for a week to reduce any non-specific stress responses. And then, please refer to FIG. 1A and FIG. 1B, FIG. 1A and FIG. 1B are diagrams showing the experimental designs according to an embodiment of the present invention. […] “Wild-type” means the mice are monitored without tumor inoculation and mirtazapine treatment, drug means the mice are monitored with continuous mirtazapine treatment but without tumor inoculation, never means the mice are monitored with tumor inoculation and daily 0.05 ml of 0.9% NaCl plus 0.5% absolute ethanol treatment but without mirtazapine treatment, always means the mice are monitored with mirtazapine treatment initiated 2 weeks before the tumor inoculation, and concurrent means the mice are monitored with tumor inoculation and mirtazapine treatment on the same day, and after means the mice are monitored with mirtazapine treatment initiated 2 weeks post the tumor inoculation. That is, the mice were assayed on day 22 for behaviors, and then sacrificed for the measurement of lymphocyte subsets and performed with ex vivo autoradiography.
As to the quantification of interleukin-12 (hereafter called “IL-12”), the whole blood withdrawn from the pouch of each mouse was centrifuged at 600×g for 20 min, and serum was collected. The serum IL-12p70 (sIL-12) level was determined using an ELISA kit (R&D Systems, Taiwan). Identification for the lymph node cluster of differentiated CD4+ T helper and CD8+T-cytotoxic lymphocyte subsets was assayed. Briefly, the lymphocytes isolated from the lymph nodes of groins of mice were stained with phycoerythrin-conjugated antimouse CD4 (CD4-PE) monoclonal antibody and peridininchlorophyll-protein-complex-conjugated anti-mouse CD8 (CD8-PerCP) monoclonal antibody (BioLegend, USA). Lymphocyte subsets were identified by FACS analysis using a FACS Calibur flow cytometer. Immunohistochemistry (IHC) of CD4 and CD8 was also performed on day 42 post the tumor inoculation. Tumors were then removed, paraffin embedded, and […] sectioning was performed. The sections were immunohistostained with antibodies against CD4 (BioLegend, USA) and CD8 (BioLegend, USA), respectively. The procedures of immunohistostaining were followed the protocols provided with the IHC kit (Millipore, USA). All images were digitally captured on a Scanscope CS system (Aperio, USA).

[2] = mouse, in vivo
Procedure: Second, all animal study protocols were approved by the Institutional Animal Care and Use Committee (IACAU) of National Yang Ming University. Mirtazapine (0.25 mg) was dissolved in 0.05 ml of 0.9% NaCl plus 0.5% absolute ethanol for each mouse (i.e. 10 mg/kg.) Male BALB/c mice (initial weights 25±2 g, and purchased from the National Laboratory Animal Center, Taipei, Taiwan) were housed in the cages, five mice per cage, under a 12:12 h reverse light/dark cycle with lights off at 6 pm Animals were handled and weighed daily for a week to reduce any non-specific stress responses. […] “Wild-type” means the mice are monitored without tumor inoculation and mirtazapine treatment, drug means the mice are monitored with continuous mirtazapine treatment but without tumor inoculation, never means the mice are monitored with tumor inoculation and daily 0.05 ml of 0.9% NaCl plus 0.5% absolute ethanol treatment but without mirtazapine treatment, always means the mice are monitored with mirtazapine treatment initiated 2 weeks before the tumor inoculation, and concurrent means the mice are monitored with tumor inoculation and mirtazapine treatment on the same day, and after means the mice are monitored with mirtazapine treatment initiated 2 weeks post the tumor inoculation. […]

CD4+ and CD8+ T cells [3] = assay: Immunohistostaining of infiltrating CD4+ and CD8+ T cells in tumor tissues; type: in vivo, mouse; conditions: concurrent and always vs never; day 42 post tumor inoculation; p<0.01 and p<0.001
Procedure: Immunohistochemistry (IHC) of CD4 and CD8 was also performed on day 42 post the tumor inoculation. Tumors were then removed, paraffin embedded, and 5-mm sectioning was performed. The sections were immunohistostained with antibodies against CD4 (BioLegend, USA) and CD8 (BioLegend, USA), respectively. The procedures of immunohistostaining were followed the protocols provided with the IHC kit (Millipore, USA). All images were digitally captured on a Scanscope CS system (Aperio, USA).

CT26/luc tumor = assay: Survival of CT26/luc tumor-bearing BALB/c mice; type: in vivo, mouse; conditions: 10 mg/kg/d by gavage, never 43.1±2.6 days
Procedure: as §1
Accordingly, the CT26/luc cells (2×10^6 cells/200 μL) suspended in the serum-free RPMI medium were transplanted subcutaneously into the dorsal region of the right thighs of the BALB/c mice. 10 mg/kg/d mirtazapine dissolved in 0.9% sodium chloride and 0.5% ethanol was administered to mice by gavage daily till mice expired or terminated on day 67 post tumor inoculation. Survival rate and interval were assayed for never, always, concurrent, and after (n=10 per group). […]

[4] = group Always, CT26/luc tumor-bearing
[5] = group Concurrent, CT26/luc tumor-bearing
[6] = group Drug: continuous mirtazapine 10 mg/kg/d, no tumor
[7] = group after, CT26/luc tumor-bearing

CN1CCN2c3ncccc3Cc3ccccc3C2C1 (stereo not shown) [mirtazapine]
CD4+ T cells (10^4 events) (CD4+ and CD8+ T cells [1]; [4]): 29.75 ± 1.96%
CD8+ T cells (10^4 events) (CD4+ and CD8+ T cells [1]; [4]): 32.77 ± 7.43%
CD4+ T cells (10^4 events) (CD4+ and CD8+ T cells [1]; [5]): 25.77 ± 0.73%
CD8+ T cells (10^4 events) (CD4+ and CD8+ T cells [1]; [5]): 22.41 ± 5.03%
CD4+ T cells (10^4 events) (CD4+ and CD8+ T cells [1]; [6]): 30.97 ± 1.40%
CD8+ T cells (10^4 events) (CD4+ and CD8+ T cells [1]; [6]): 30.95 ± 6.57%
CD4+ T cells (10^4 events) (CD4+ and CD8+ T cells [1]; [7]): 22.58 ± 1.15%
CD8+ T cells (10^4 events) (CD4+ and CD8+ T cells [1]; [7]): 15.86 ± 4.78%
body weight change (general toxicity) [2]: no significant body weight change
infiltrating CD4+ and CD8+ cells/0.1 mm^2 tumor tissues (CD4+ and CD8+ T cells [3]): significantly increased numbers
survival time (CT26/luc tumor; group after): 57.01 ± 3.2 days
survival time (CT26/luc tumor; group always, terminated on day 67): 66.91 ± 0.1 days
survival time (CT26/luc tumor; group concurrent): 63.61 ± 1.5 days
